Test results published in US10231954B2, “Neurodegenerative therapies” (LYTIX BIOPHARMA AS, priority 2014, dated 2019).
Where two headings read alike, the source gives them in different places.

Columns and labels:
Assay type in all cases: biochemical
MKK2 = MKK2 (Homo sapiens, UniProt P36507); test: Kinase profiling MKK2; conditions: for remaining activity at 100 µM: read-out: residual kinase activity, MKK2
Excerpt: (§1) Any value less that 25 is considered to be highly significant inhibition.

p38b MAPK = p38b MAPK (Homo sapiens, UniProt Q15759); test: Kinase profiling p38b MAPK; conditions: for remaining activity at 100 µM: read-out: residual kinase activity, p38b MAPK
Excerpt: as §1

PKCa = PKCa (Homo sapiens, UniProt P17252); test: Kinase profiling PKCa; conditions: for remaining activity at 100 µM: read-out: residual kinase activity, PKCa
Excerpt: as §1

PKD1 = biological target: T1, PKD1 (Homo sapiens, UniProt Q15139); test: Kinase profiling PKD1; conditions: for remaining activity at 100 µM: read-out: residual kinase activity, PKD1
T1 sequence (Q15139 1-912): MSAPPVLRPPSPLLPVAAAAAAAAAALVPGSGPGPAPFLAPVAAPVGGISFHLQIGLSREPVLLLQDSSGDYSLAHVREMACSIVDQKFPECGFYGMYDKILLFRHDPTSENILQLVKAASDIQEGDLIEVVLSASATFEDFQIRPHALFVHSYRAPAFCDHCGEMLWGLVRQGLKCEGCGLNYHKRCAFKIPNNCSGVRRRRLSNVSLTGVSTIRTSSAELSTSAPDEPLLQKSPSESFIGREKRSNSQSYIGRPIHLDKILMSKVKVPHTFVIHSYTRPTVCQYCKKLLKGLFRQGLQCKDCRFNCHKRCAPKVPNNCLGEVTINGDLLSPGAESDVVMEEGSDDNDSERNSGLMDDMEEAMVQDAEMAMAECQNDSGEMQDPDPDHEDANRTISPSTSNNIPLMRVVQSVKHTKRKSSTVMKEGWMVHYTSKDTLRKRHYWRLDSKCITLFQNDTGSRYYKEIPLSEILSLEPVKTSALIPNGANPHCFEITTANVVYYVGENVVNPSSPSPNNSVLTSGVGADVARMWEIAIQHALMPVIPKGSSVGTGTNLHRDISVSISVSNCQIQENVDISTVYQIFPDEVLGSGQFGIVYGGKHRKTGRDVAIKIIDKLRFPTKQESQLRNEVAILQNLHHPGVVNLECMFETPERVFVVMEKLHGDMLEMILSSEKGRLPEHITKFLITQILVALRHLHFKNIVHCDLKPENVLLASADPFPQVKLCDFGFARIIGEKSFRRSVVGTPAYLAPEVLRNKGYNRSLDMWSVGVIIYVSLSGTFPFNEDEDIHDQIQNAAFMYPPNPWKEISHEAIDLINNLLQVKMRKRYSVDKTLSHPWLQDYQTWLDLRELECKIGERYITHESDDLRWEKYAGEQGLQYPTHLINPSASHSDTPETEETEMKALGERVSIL
Excerpt: as §1

PLK1 = PLK1 (Homo sapiens, UniProt P53350); test: Kinase profiling PLK1; conditions: for remaining activity at 100 µM: read-out: residual kinase activity, PLK1
Excerpt: as §1

MKK1 = MKK1 (Homo sapiens, UniProt Q02750); test: Kinase profiling MKK1; conditions: for remaining activity at 100 µM: read-out: residual kinase activity, MKK1
Excerpt: as §1

SRPK1 = SRPK1 (Homo sapiens, UniProt Q96SB4); test: Kinase profiling SRPK1; conditions: for remaining activity at 100 µM: read-out: residual kinase activity, SRPK1
Excerpt: as §1

CK2 = test: Kinase profiling CK2; conditions: 100 micromolar inhibitor concentration; 100 is no change
Excerpt: as §1

RIPK2 = RIPK2 (Homo sapiens, UniProt O43353); test: Kinase profiling RIPK2; conditions: for remaining activity at 100 µM: read-out: residual kinase activity, RIPK2
Excerpt: as §1

PRK2 = PRK2 (Homo sapiens, UniProt Q16513); test: Kinase profiling PRK2; conditions: for remaining activity at 100 µM: read-out: residual kinase activity, PRK2
Excerpt: as §1

BTK = BTK (Homo sapiens, UniProt Q06187); test: Kinase profiling BTK; conditions: for remaining activity at 100 µM: read-out: residual kinase activity, BTK
Excerpt: as §1

PAK4 = PAK4 (Homo sapiens, UniProt O96013); test: Kinase profiling PAK4; conditions: for remaining activity at 100 µM: read-out: residual kinase activity, PAK4
Excerpt: as §1

TBK1 = biological target: T2, TBK1 (Homo sapiens, UniProt Q9UHD2); test: Kinase profiling TBK1; conditions: for remaining activity at 100 µM: read-out: residual kinase activity, TBK1
T2 sequence (Q9UHD2 1-729): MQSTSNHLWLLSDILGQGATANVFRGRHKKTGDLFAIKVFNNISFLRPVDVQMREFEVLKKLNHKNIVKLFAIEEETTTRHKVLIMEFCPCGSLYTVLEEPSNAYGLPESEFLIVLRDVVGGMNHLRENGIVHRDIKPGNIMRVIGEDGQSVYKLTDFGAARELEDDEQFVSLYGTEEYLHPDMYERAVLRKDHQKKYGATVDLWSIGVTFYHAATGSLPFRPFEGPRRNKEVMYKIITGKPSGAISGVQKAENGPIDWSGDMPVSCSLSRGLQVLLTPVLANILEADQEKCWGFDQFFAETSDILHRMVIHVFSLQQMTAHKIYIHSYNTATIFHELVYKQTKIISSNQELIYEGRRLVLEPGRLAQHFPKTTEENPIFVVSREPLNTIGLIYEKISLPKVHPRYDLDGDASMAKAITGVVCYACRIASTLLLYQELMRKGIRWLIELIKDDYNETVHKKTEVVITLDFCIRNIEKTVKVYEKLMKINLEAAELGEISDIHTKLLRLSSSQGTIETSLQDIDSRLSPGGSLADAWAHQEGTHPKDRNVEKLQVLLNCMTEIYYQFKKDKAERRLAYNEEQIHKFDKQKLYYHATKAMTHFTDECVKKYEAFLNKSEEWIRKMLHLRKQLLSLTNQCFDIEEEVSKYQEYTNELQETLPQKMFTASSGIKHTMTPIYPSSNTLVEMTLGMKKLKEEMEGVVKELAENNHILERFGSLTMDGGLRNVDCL
Excerpt: as §1

EPH-A2 = EPH-A2 (Homo sapiens, UniProt P29317); test: Kinase profiling EPH-A2; conditions: for remaining activity at 100 µM: read-out: residual kinase activity, EPH-A2
Excerpt: as §1

CAMKKb = CAMKKb (Homo sapiens, UniProt Q96RR4); test: Kinase profiling CAMKKb; conditions: for remaining activity at 100 µM: read-out: residual kinase activity, CAMKKb
Excerpt: as §1

PKCγ = PKCγ (Homo sapiens, UniProt P05129); test: Kinase profiling PKCγ; conditions: for remaining activity at 100 µM: read-out: residual kinase activity, PKCγ
Excerpt: as §1

p38g MAPK = biological target: T3, p38g MAPK (Homo sapiens, UniProt P53778); test: Kinase profiling p38g MAPK; conditions: for remaining activity at 100 µM: read-out: residual kinase activity, p38g MAPK
T3 sequence (P53778 1-367): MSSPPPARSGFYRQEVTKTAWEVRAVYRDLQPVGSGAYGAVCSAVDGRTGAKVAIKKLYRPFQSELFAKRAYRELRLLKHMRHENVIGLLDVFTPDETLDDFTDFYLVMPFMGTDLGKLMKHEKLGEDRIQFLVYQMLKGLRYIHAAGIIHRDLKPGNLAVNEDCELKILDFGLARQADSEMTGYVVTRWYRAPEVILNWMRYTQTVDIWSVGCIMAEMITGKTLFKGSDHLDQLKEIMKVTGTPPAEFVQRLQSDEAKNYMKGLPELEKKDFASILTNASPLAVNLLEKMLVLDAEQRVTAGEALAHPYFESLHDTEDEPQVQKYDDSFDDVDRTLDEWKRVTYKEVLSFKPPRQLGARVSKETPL
Excerpt: as §1

[1] = 100 micromolar inhibitor concentration, 100 is no change

RIPK2, sequence (O43353 whole entry, species assumed): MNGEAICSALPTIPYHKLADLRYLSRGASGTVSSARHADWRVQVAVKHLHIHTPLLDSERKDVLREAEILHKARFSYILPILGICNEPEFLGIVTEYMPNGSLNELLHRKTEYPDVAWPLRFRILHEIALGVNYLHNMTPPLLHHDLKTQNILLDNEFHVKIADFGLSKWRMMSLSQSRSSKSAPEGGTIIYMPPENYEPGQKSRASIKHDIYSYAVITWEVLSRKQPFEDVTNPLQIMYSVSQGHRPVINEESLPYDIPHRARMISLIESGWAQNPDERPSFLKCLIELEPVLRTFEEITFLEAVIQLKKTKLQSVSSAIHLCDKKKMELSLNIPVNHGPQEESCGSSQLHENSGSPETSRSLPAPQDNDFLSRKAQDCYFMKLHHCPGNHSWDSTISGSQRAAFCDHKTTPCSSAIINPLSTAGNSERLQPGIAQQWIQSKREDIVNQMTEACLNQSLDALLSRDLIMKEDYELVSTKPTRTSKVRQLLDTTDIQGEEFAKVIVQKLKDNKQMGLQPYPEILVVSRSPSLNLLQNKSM
EPH-A2, sequence (P29317 24-976, species assumed): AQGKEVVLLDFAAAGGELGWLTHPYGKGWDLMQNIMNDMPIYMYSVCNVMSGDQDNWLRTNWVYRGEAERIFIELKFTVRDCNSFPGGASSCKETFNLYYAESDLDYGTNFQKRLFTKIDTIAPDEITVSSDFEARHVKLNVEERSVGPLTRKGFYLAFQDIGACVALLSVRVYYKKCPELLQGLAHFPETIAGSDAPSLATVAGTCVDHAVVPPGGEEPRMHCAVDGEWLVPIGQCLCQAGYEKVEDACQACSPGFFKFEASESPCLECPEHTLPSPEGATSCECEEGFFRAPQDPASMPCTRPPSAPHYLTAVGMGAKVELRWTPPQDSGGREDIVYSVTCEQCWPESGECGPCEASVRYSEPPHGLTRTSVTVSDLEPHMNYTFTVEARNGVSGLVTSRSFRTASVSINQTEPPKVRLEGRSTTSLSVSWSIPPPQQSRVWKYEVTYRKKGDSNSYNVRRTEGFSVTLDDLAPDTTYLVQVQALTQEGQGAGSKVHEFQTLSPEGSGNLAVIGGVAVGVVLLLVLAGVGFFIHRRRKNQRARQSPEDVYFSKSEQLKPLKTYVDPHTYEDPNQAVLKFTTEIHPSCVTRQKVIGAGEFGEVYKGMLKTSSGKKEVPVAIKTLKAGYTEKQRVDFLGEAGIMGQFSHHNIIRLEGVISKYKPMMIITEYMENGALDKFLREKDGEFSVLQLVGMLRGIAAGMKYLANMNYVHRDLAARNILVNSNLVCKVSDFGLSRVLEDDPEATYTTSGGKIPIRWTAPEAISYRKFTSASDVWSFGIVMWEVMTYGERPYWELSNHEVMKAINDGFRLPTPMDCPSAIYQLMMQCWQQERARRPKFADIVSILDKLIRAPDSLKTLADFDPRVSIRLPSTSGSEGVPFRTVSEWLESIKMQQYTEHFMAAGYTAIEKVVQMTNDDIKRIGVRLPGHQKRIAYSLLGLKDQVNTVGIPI
SRPK1, sequence (Q96SB4 whole entry, species assumed): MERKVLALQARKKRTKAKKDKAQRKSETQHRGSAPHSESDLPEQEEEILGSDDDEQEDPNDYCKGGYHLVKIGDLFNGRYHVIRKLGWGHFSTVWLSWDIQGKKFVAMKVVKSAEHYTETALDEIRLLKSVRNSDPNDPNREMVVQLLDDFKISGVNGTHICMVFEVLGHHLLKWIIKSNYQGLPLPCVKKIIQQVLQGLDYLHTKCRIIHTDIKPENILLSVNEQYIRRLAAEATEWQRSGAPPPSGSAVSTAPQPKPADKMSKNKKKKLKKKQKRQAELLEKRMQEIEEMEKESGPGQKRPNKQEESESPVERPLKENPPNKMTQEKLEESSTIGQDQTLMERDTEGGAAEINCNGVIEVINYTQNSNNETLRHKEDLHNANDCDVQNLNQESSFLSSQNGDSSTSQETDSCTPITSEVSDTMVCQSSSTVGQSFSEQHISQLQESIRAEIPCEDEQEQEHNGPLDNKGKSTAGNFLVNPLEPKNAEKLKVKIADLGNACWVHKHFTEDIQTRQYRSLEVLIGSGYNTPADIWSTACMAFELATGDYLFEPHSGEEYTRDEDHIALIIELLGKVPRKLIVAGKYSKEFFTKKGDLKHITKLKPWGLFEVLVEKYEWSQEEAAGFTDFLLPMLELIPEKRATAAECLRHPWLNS
CAMKKb, sequence (Q96RR4 whole entry, species assumed): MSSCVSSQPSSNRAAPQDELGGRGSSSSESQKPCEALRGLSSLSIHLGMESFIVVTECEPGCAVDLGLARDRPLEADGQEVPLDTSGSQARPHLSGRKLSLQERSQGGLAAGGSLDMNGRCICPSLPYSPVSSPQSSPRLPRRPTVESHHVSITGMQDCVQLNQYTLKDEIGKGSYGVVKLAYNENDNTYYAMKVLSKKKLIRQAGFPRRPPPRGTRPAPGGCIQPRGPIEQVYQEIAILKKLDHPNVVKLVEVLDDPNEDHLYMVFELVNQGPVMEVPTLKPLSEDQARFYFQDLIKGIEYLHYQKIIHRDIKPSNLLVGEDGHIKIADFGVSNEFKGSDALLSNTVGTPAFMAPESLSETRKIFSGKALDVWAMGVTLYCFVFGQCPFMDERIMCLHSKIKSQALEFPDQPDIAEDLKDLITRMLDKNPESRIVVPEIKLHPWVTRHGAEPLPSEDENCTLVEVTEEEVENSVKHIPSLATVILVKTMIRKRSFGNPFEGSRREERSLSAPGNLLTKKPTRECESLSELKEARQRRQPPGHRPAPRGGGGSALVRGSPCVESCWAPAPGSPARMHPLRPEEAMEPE
BTK, sequence (Q06187 whole entry, species assumed): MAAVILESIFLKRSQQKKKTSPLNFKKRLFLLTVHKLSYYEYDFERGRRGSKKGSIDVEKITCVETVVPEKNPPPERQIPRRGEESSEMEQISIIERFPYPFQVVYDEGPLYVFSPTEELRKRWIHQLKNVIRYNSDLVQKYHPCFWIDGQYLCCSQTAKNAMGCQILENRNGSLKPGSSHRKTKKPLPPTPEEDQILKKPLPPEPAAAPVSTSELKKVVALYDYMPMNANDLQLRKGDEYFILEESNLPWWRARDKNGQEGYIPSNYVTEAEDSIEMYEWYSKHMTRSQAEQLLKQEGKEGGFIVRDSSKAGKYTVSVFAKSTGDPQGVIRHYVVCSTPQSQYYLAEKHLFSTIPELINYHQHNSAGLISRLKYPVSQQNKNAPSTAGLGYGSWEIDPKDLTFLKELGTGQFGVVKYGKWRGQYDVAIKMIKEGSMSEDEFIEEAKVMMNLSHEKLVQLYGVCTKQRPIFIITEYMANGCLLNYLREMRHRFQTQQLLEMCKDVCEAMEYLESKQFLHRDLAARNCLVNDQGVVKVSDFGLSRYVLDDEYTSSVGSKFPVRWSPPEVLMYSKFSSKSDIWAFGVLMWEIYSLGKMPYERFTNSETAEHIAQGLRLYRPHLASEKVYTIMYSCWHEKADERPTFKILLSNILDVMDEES
MKK1, sequence (Q02750 whole entry, species assumed): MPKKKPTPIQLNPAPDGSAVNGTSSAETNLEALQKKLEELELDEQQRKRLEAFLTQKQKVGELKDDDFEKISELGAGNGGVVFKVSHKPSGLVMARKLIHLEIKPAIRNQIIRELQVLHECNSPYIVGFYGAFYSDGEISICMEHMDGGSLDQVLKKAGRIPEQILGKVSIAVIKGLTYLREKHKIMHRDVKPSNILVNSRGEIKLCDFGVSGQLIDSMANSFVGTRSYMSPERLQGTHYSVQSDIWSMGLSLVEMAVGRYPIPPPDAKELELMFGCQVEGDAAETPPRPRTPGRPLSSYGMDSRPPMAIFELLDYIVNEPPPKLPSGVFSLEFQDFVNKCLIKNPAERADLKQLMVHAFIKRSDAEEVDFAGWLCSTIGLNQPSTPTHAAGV
p38b MAPK, sequence (Q15759 whole entry): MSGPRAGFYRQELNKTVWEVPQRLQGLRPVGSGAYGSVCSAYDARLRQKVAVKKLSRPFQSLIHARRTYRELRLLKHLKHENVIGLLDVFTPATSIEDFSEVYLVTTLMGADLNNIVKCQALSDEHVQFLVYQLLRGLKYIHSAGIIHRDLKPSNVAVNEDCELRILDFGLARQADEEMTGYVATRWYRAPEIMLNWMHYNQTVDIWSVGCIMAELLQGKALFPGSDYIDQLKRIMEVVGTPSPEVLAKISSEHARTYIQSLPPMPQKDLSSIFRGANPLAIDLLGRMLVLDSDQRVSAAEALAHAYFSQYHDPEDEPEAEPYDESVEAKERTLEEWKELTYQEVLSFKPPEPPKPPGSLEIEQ

SMILES: O=C(Nc1nc2cc(O)ccc2s1)c1ccncc1 [Compound 03-11]
- residual kinase activity, MKK2 (MKK2; [1]): 98
- residual kinase activity, p38b MAPK (p38b MAPK; [1]): 97
- residual kinase activity, PKCa (PKCa; [1]): 91
- residual kinase activity, PKD1 (PKD1; [1]): 74
- residual kinase activity, PLK1 (PLK1; [1]): 76
- residual kinase activity, MKK1 (MKK1; [1]): 88
- residual kinase activity, SRPK1 (SRPK1; [1]): 66
- residual kinase activity, CK2 (CK2): 68
- residual kinase activity, RIPK2 (RIPK2; [1]): 60
- residual kinase activity, PRK2 (PRK2; [1]): 77
- residual kinase activity, BTK (BTK; [1]): 107
- residual kinase activity, PAK4 (PAK4; [1]): 73
- residual kinase activity, TBK1 (TBK1; [1]): 80
- residual kinase activity, EPH-A2 (EPH-A2; [1]): 84
- residual kinase activity, CAMKKb (CAMKKb; [1]): 88
- residual kinase activity, PKCγ (PKCγ; [1]): 101
- residual kinase activity, p38g MAPK (p38g MAPK; [1]): 93

SMILES: CC(=O)Nc1nc2cc(C)ccc2s1 [Compound 03-76]
- residual kinase activity, MKK2 (MKK2; [1]): 155
- residual kinase activity, p38b MAPK (p38b MAPK; [1]): 83
- residual kinase activity, PKCa (PKCa; [1]): 94
- residual kinase activity, PKD1 (PKD1; [1]): 89
- residual kinase activity, PLK1 (PLK1; [1]): 90
- residual kinase activity, MKK1 (MKK1; [1]): 73
- residual kinase activity, SRPK1 (SRPK1; [1]): 73
- residual kinase activity, CK2 (CK2): 75
- residual kinase activity, RIPK2 (RIPK2; [1]): 60
- residual kinase activity, PRK2 (PRK2; [1]): 84
- residual kinase activity, BTK (BTK; [1]): 92
- residual kinase activity, PAK4 (PAK4; [1]): 101
- residual kinase activity, TBK1 (TBK1; [1]): 78
- residual kinase activity, EPH-A2 (EPH-A2; [1]): 93
- residual kinase activity, CAMKKb (CAMKKb; [1]): 71
- residual kinase activity, PKCγ (PKCγ; [1]): 106
- residual kinase activity, p38g MAPK (p38g MAPK; [1]): 92

SMILES: CC(=O)Nc1nc2cc(O)ccc2s1 [Compound 01-66, N-(5-hydroxybenzo[d]thiazol-2-yl)acetamide]
- remaining activity at 100 µM (MKK2): 42%
- remaining activity at 100 µM (p38b MAPK): 92%
- remaining activity at 100 µM (PKCa): 82%
- remaining activity at 100 µM (PKD1): 30%
- remaining activity at 100 µM (PLK1): 103%
- remaining activity at 100 µM (MKK1): 31%
- remaining activity at 100 µM (SRPK1): 59%
- residual kinase activity, CK2 (CK2): 54
- remaining activity at 100 µM (RIPK2): 29%
- remaining activity at 100 µM (PRK2): 67%
- remaining activity at 100 µM (BTK): 67%
- remaining activity at 100 µM (PAK4): 66%
- remaining activity at 100 µM (TBK1): 60%
- remaining activity at 100 µM (EPH-A2): 67%
- remaining activity at 100 µM (CAMKKb): 44%
- remaining activity at 100 µM (PKCγ): 99%
- remaining activity at 100 µM (p38g MAPK): 46%

SMILES: CC(=O)Nc1nc2ccc(C(F)(F)F)cc2s1 [Compound 01-90]
- remaining activity at 100 µM (MKK2; [1]): 73%
- remaining activity at 100 µM (p38b MAPK; [1]): 82%
- remaining activity at 100 µM (PKCa; [1]): 101%
- remaining activity at 100 µM (PKD1; [1]): 119%
- remaining activity at 100 µM (PLK1; [1]): 80%
- remaining activity at 100 µM (MKK1; [1]): 80%
- remaining activity at 100 µM (SRPK1; [1]): 41%
- residual kinase activity, CK2 (CK2): 92
- remaining activity at 100 µM (RIPK2; [1]): 23%
- remaining activity at 100 µM (PRK2; [1]): 94%
- remaining activity at 100 µM (BTK; [1]): 73%
- remaining activity at 100 µM (PAK4; [1]): 67%
- remaining activity at 100 µM (TBK1; [1]): 83%
- remaining activity at 100 µM (EPH-A2; [1]): 67%
- remaining activity at 100 µM (CAMKKb; [1]): 29%
- remaining activity at 100 µM (PKCγ; [1]): 53%
- remaining activity at 100 µM (p38g MAPK; [1]): 101%

SMILES: CC(=O)NC(C)C(=O)Nc1nc2ccc(C(F)(F)F)cc2s1 (centres unmarked) [Compound 03-80]
- residual kinase activity, MKK2 (MKK2; [1]): 75
- residual kinase activity, p38b MAPK (p38b MAPK; [1]): 77
- residual kinase activity, PKCa (PKCa; [1]): 125
- residual kinase activity, PKD1 (PKD1; [1]): 82
- residual kinase activity, MKK1 (MKK1; [1]): 80
- residual kinase activity, PRK2 (PRK2; [1]): 79
- residual kinase activity, PKCγ (PKCγ; [1]): 87
- residual kinase activity, p38g MAPK (p38g MAPK; [1]): 83

SMILES: CC(=O)Nc1ccc(C(=O)Nc2nc3cc(O)ccc3s2)cc1 [MS:LY-2-87]
- residual kinase activity, MKK2 (MKK2; [1]): 73
- residual kinase activity, p38b MAPK (p38b MAPK; [1]): 82
- residual kinase activity, PKCa (PKCa; [1]): 59
- residual kinase activity, PKD1 (PKD1; [1]): 52
- residual kinase activity, MKK1 (MKK1; [1]): 69
- residual kinase activity, PRK2 (PRK2; [1]): 67
- residual kinase activity, PKCγ (PKCγ; [1]): 74
- residual kinase activity, p38g MAPK (p38g MAPK; [1]): 93

SMILES: CC(=O)Nc1cccc(C(=O)Nc2nc3cc(O)ccc3s2)c1 [MS:LY-2-89]
- residual kinase activity, MKK2 (MKK2; [1]): 47
- residual kinase activity, p38b MAPK (p38b MAPK; [1]): 17
- residual kinase activity, PKCa (PKCa; [1]): 48
- residual kinase activity, PKD1 (PKD1; [1]): 22
- residual kinase activity, MKK1 (MKK1; [1]): 56
- residual kinase activity, PRK2 (PRK2; [1]): 44
- residual kinase activity, PKCγ (PKCγ; [1]): 63
- residual kinase activity, p38g MAPK (p38g MAPK; [1]): 64
